According to PubChem BioAssay (NCI):
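Exposure lasted 48 hours, with cells grown in 96-well plates and compounds tested at five concentrations. The concentration for 50% growth inhibition is given as GI50. Definition used: TGI = concentration required for complete inhibition of growth.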

Columns and labels:
Test in all cases: growth of human tumour cells (NCI), 48 h
OVCAR-5 ovarian = system: OVCAR-5 ovarian
SF-295 CNS = system: SF-295 CNS
A549 NSCLC = system: A549 NSCLC
HOP-92 NSCLC = system: HOP-92 NSCLC
SK-MEL-5 melanoma = system: SK-MEL-5 melanoma
OVCAR-3 ovarian = system: OVCAR-3 ovarian
OVCAR-4 ovarian = system: OVCAR-4 ovarian
K-562 leukemia = system: K-562 leukemia
CCRF-CEM leukemia = system: CCRF-CEM leukemia
SN12C renal = system: SN12C renal

Structure (SMILES) | TGI (OVCAR-5 ovarian) | TGI (SF-295 CNS) | TGI (A549 NSCLC) | TGI (HOP-92 NSCLC) | TGI (SK-MEL-5 melanoma) | TGI (OVCAR-3 ovarian) | TGI (OVCAR-4 ovarian) | TGI (K-562 leukemia) | TGI (CCRF-CEM leukemia) | TGI (SN12C renal) | GI50 (OVCAR-5 ovarian) | GI50 (SF-295 CNS) | GI50 (A549 NSCLC) | GI50 (HOP-92 NSCLC) | GI50 (SK-MEL-5 melanoma) | GI50 (OVCAR-3 ovarian) | GI50 (OVCAR-4 ovarian) | GI50 (K-562 leukemia) | GI50 (CCRF-CEM leukemia) | GI50 (SN12C renal)
COC(=O)c1nc(NC#N)[nH]c(=O)c1C | > 100 µM | > 100 µM | > 100 µM | > 100 µM | > 100 µM | > 100 µM | > 100 µM | > 100 µM | > 100 µM | > 100 µM | – | – | – | – | – | – | – | – | – | –
N=C(N)CCCCCCCCC(=N)N | > 100 µM | 81.3 µM | > 100 µM | > 100 µM | > 100 µM | > 100 µM | > 100 µM | > 100 µM | > 100 µM | > 100 µM | 26.4 µM | 23.5 µM | 6.6 µM | 19.1 µM | 38.2 µM | 34.1 µM | 44.4 µM | 19.7 µM | 44.6 µM | 25.7 µM
Cc1cc2c(F)c(Oc3ncnn4cc(OC[C@@H](C)OC(=O)[C@H](C)N)c(C)c34)ccc2[nH]1 | 29.2 µM | 21.3 µM | 23.3 µM | 33.5 µM | 15.1 µM | 23.7 µM | 23.8 µM | 20.2 µM | 23.1 µM | 26.2 µM | 14.9 µM | 7.87 µM | 8.86 µM | 16.6 µM | 3.26 µM | 10.7 µM | 11.3 µM | 3.83 µM | 5.96 µM | 12.6 µM
CCOC(=O)C1C(=O)c2ccccc2CN1Cc1ccccc1 (stereo not drawn) | > 100 µM | > 100 µM | > 100 µM | > 100 µM | > 100 µM | > 100 µM | > 100 µM | > 100 µM | > 100 µM | > 100 µM | – | – | – | – | – | – | – | – | – | –
C[N+](C)(CCCCCC[N+](C)(C)CCCN1C(=O)c2cc3ccccc3cc2C1=O)CCCN1C(=O)c2ccccc2C1=O | > 37.5 µM | > 37.5 µM | > 37.5 µM | > 37.5 µM | > 37.5 µM | > 37.5 µM | > 37.5 µM | > 37.5 µM | > 37.5 µM | > 37.5 µM | > 37.5 µM | > 37.5 µM | > 37.5 µM | > 37.5 µM | > 37.5 µM | > 37.5 µM | > 37.5 µM | > 37.5 µM | > 37.5 µM | > 37.5 µM
COc1ccc(/C=C2/C[N+](C)(C)C/C(=C/c3ccc(OC)cc3)C2=O)cc1 | > 100 µM | > 100 µM | > 100 µM | > 100 µM | > 72 µM | 98.5 µM | > 88.9 µM | > 100 µM | > 96.1 µM | > 100 µM | – | – | – | – | – | – | – | – | – | –
O=C(c1ccccc1)c1c(C(=O)c2ccccc2)c(-c2ccccc2)c2c(-c3ccccc3)sc(-c3ccccc3)c2c1-c1ccccc1 | > 100 µM | > 100 µM | > 100 µM | > 100 µM | > 100 µM | > 100 µM | > 100 µM | > 100 µM | > 100 µM | > 100 µM | – | – | – | – | – | – | – | – | – | –
C[C@H]1CCC/C=C/[C@@H]2C[C@H](O)C[C@H]2[C@H](O)[C@@H](S(=O)CCN(C)C)CC(=O)O1 (stereo partly drawn) | > 100 µM | > 100 µM | > 100 µM | > 100 µM | 0.131 µM | – | > 100 µM | > 100 µM | > 100 µM | – | 0.367 µM | 0.524 µM | 0.178 µM | 4.99 µM | 0.0374 µM | 0.115 µM | 0.219 µM | 0.633 µM | 0.388 µM | 0.256 µM
O=c1cc2ccccc2nn1-c1ccccc1Cl | > 100 µM | > 100 µM | > 100 µM | > 100 µM | > 100 µM | > 100 µM | > 100 µM | > 100 µM | > 100 µM | > 100 µM | – | – | – | – | – | – | – | – | – | –
CC[N+](CC)(CC)CCCn1c2c(c3ccccc3c1=O)C(=O)c1ccccc1-2 | 48.6 µM | 57.9 µM | 35.8 µM | > 100 µM | 5.91 µM | 50.2 µM | > 100 µM | > 100 µM | 23.6 µM | > 100 µM | 16.5 µM | 7.38 µM | 6.27 µM | 17.9 µM | 1.43 µM | 9.05 µM | 55.3 µM | 18.7 µM | 2.99 µM | 5.59 µM
COc1ccc(-c2nc(-c3cn(C)c4ncccc34)cs2)cc1 | > 100 µM | > 100 µM | > 100 µM | 55.9 µM | > 100 µM | > 100 µM | > 100 µM | > 100 µM | > 100 µM | > 100 µM | > 100 µM | 20.3 µM | 76.1 µM | 2.02 µM | 16.9 µM | 41.6 µM | > 100 µM | 5.05 µM | > 100 µM | > 100 µM
C=C(CN1CCc2ccccc2C1)c1ccc(C(=O)Nc2ccc(N)cc2)cc1 | > 100 µM | 59.4 µM | 52.5 µM | 12.7 µM | 30.9 µM | 48 µM | > 100 µM | > 100 µM | > 100 µM | > 100 µM | 29.9 µM | 16.5 µM | 18.7 µM | 0.0854 µM | 16.3 µM | 12.7 µM | 40.7 µM | 1.94 µM | 0.454 µM | 30.1 µM
